Experimental data as given in PMC9863607, “Combined Use of Antimicrobial Peptides with Antiseptics against Multidrug-Resistant Bacteria: Pros and Cons” (Pharmaceutics, 2023).

How the values were obtained:
A. baumannii 7226/16 = assay: microbe, parasite or virus in culture; assay type: cell-based, Acinetobacter baumannii; settings: antiseptics and surfactants; MHB, overnight 37 °C; median of 3–4 independent experiments; prontosan as polyhexanide
Protocol: (§1) In this regard the test plates were preincubated for 1 h at 37 °C with 0.1% bovine serum albumin (BSA) in distilled water before use. Bacteria were grown overnight at 37 °C with shaking in 2.1% Müller–Hinton broth (MHB), and then a small aliquot was transferred into the fresh portion of the same medium for another 2–3 h on the day of the experiment to provide us with the log phase bacterial suspension. Concentration of bacterial cells in suspension was evaluated based on absorbance at 620 nm and diluted down to 1 × 10^6 CFU/mL with MHB. Equal volumes of the prepared bacterial suspension in MHB and two-fold serial dilutions of the antimicrobials in 10 mM sodium phosphate (Na-P) buffer (pH 7.4) with 0.1% BSA were mixed and incubated overnight at 37 °C. The lowest concentration where no bacterial growth was observed the next day under visual examination was considered the minimal inhibitory concentration. The test was repeated at least three times, and the final MIC value was established as a median result. Each experiment was conducted in triplicates. Terasaki microplates (10 µL end volume, V-shaped bottom; Sarstedt, Nümbrecht, Germany) were used.

P. aeruginosa MDR 522/17 = assay: microbe, parasite or virus in culture; assay type: cell-based, Pseudomonas aeruginosa; settings: antiseptics and surfactants; MHB, overnight 37 °C; median of 3–4 independent experiments; prontosan as polyhexanide
Protocol: as §1

E. coli ML-35p = assay: Broth microdilution assay (MIC, planktonic bacteria); assay type: cell-based, Escherichia coli; settings: antiseptics and surfactants; MHB, overnight 37 °C; median of 3–4 independent experiments; prontosan as polyhexanide
Protocol: as §1

S. aureus 1399/17 = assay: microbe, parasite or virus in culture; assay type: cell-based, Staphylococcus aureus; settings: antiseptics and surfactants; MHB, overnight 37 °C; median of 3–4 independent experiments; prontosan as polyhexanide
Protocol: as §1

E. coli ESBL 521/17 = assay: microbe, parasite or virus in culture; assay type: cell-based, Escherichia coli; settings: antiseptics and surfactants; MHB, overnight 37 °C; median of 3–4 independent experiments; prontosan as polyhexanide
Protocol: as §1

[1] = test system: drug-resistant clinical isolates and E. coli ML-35p; assay: Checkerboard titration, all tested bacteria together; assay type: cell-based; settings: planktonic bacteria
Protocol: The mode of interaction of the test substances while applied in combinations was analyzed based on the calculation of the fractional (or combination) indices—the mathematical “embodiment” of the Loewe additivity paradigm that we used for the classification of combination effects in this study. As synergy is generally defined as a greater than additive effect, and antagonism as a lower than additive effect, the main problem is to establish a reference level for this additive effect. The Loewe approach uses the idea of the self-additivity of an individual substance; thus, the individual activity may be regarded as an additivity control. To identify additivity, synergy, or antagonism in Loewe terms, one should choose a fixed level of the studied effect and then compare the doses of individual substances required to reach this level, with the fractional doses of the substances in combination providing the same level of the effect.
In the case of activity testing of combinations toward planktonic bacteria, a checkerboard titration scheme was used to create an array of mixtures of the two substances (A and B) in various concentrations by diluting the first one two-fold row-by-row and the second one column-by-column. The left column and the bottom row contained the dilutions of only one substance (A or B) to control their individual activity levels in every experiment. […]

[2] = test system: K. pneumoniae ESBL 344/17; assay: microbe, parasite or virus in culture; assay type: cell-based, Klebsiella pneumoniae; settings: antiseptics and surfactants; MHB, overnight 37 °C; median of 3–4 independent experiments; prontosan as polyhexanide
Protocol: as §1

bacteria = settings: cited from earlier work
Description: Among surfactants, as was expected based on the literature data, sodium lauroyl sarcosinate was the most universally active toward bacteria. […] This is especially interesting in light of the fact that prontosan has an amidopopyl betaine in its composition alongside the poly ...

Compound | MIC (A. baumannii 7226/16) | MIC (P. aeruginosa MDR 522/17) | MIC (E. coli ML-35p) [µg/mL] | MIC (S. aureus 1399/17) | MIC (E. coli ESBL 521/17) | Type of interaction with AMPs, antibacterial effect of combinations [1] | MIC [2] | MICs by disk-diffusion method (bacteria) [mg/mL]
[Na+].[O-]Cl [Sodium hypochlorite] | 2500 µg/mL | 5000 µg/mL | 5000 | 10,000 µg/mL | 5000 µg/mL | antagonistic interaction | 5000 µg/mL | 
CCCCCCCCCCCC(=O)N(C)CC(=O)[O-].[Na+] [Sodium lauroyl sarcosinate] | 25,000 µg/mL | 50,000 µg/mL | 6250 | >50,000 µg/mL | 12,500 µg/mL | antagonistic interaction | 12,500 µg/mL | 37.5 to 300
